Laboratory results from patent US20250376480A1, “COMPOUND FOR LOSING WEIGHT AND IMPROVING GUT MICROBIOTA COMPOSITION AND COMPOSITION THEREOF” (SUNWAY BIOTECH CO., LTD., priority 2024, published 2025).
Marks after values point to notes of the source that are not given here.

What was measured:
Format in all cases: in vivo, rat
[1] = tested on: obesity rats induced by high-fat feed; experiment: Body weight change of obesity rats induced by high-fat feed
Protocol: (§1) Forty male rats of 8-week-old Sprague-Dawley (SD) strain were purchased from BioLASCO (Taipei, Taiwan) for the experiment. The growing environment was one with constant indoor temperature (25±1° C.), relative humidity of 60%, and 12 hours of cyclic light (light time from 8:00 to 20:00). The rats were acclimatized for four days before the formal experiment, then reared in 5 groups of 8 rats each for 8 weeks and were fed in an ad libitum feeding manner, and their body weight, food intake and water intake were measured at regular intervals during the experimental period.
The feeding dosage was calculated according to the method of “Estimating the maximum safe starting dose in initial clinical trials for therapeutics in adult healthy volunteers” published by the U.S. Food and Drug Administration in 2005. Provided that an adult of 60 kg was used as the base, the principle of dosage conversion is 6.2 times of the recommended daily intake of mg/kg bw/day for human as the recommended daily intake of mg/kg bw/day for rat, and the rat group is configured and fed with the dosage as shown in Table 1. The formulae are as follows: Dose intake per kilogram of body weight in rats=Recommended intake in humans÷Body weight 60 kg×6.2, and thus the daily dose intake per kilogram of body weight in rats can be calculated.
(§2) The experimental rats were divided into groups, and the obesity rats were induced by high-fat feed as follows (Please refer to Table 1). • i. NOR Group: Normal animal group. • ii. HF Group: High-fat control group including obesity rats induced by high-fat feed. • iii. RL Group: Obesity rats induced by high-fat feed and tube-fed daily with red yeast rice powder, equivalent to 0.5 g of red yeast rice containing 1.5 mg of Monascinol (compound having the structure of Formula (I)) per day consumed by an adult of 60 kg. • iv. RH Group: Obesity rats induced by high-fat feed and tube-fed red yeast rice powder daily, equivalent to 2 g of red yeast rice containing 6 mg of Monascinol (compound having the structure of Formula (I)) per day consumed by an adult of 60 kg. • V. Msol Group: Obesity rats induced by high-fat feed and tube-fed Monascinol (compound having the structure of Formula (I)) powder daily, equivalent to 3 mg of Monascinol (compound having the structure of Formula (I)) powder per day consumed by an adult of 60 kg.
(4) Test Substance Feeding Method: The test substance was administered orally by tube feeding, and the concentration of the test substance was adjusted by using reverse osmosis water. 2.0 mL of sterile plastic syringes with stainless steel feeding pins were used to feed each group of test substance daily. […]
The body weight of rats was measured weekly and the changes in body weight of each group were compared at the end of the experiment.

[2] = tested on: obesity rats induced by high-fat feed; experiment: Liver weight and liver/body weight of high-fat diet rats
Protocol: as §1, §2
(§3) (4) Test Substance Feeding Method: The test substance was administered orally by tube feeding, and the concentration of the test substance was adjusted by using reverse osmosis water. 2.0 mL of sterile plastic syringes with stainless steel feeding pins were used to feed each group of test substance daily. Stainless steel feeding needles were soaked in 70% alcohol solution and rinsed with sterile distilled water several times before use. Each group of test animals was administered the test substance once a day for 8 weeks.
(§4) The animals fasted for 16 hours before sacrifice, and carbon dioxide was used for asphyxiation during sacrifice. After making sure that there was no heartbeat, blood was drawn and organs were collected. […] After blood collection, the needle was slowly withdrawn from the blood vessel and the blood was placed into a 2 mL eppendorf tube and centrifuged at 10,000×g for 10 min. The upper serum layer was separated into eppendorf tubes and stored in a −20° C. freezer for future analysis.

[3] = tested on: obesity rats induced by high-fat feed; experiment: Body fat mass and body fat rate (perirenal and epididymal fat) of high-fat diet rats
Protocol: as §1, §2, §3
At the time of sacrifice, fatty tissues surrounding the kidneys and the epididymis (perirenal and epididymal fatty tissues) of the experimental animals were removed, and the their weights were measured and recorded. The body fat rate was calculated as follows: Body fat efficiency=(fat weight/body weight)×100%

[4] = tested on: obesity rats induced by high-fat feed; experiment: Serum biochemical analysis (TC, TG) of high-fat diet rats
Protocol: as §2, §3
(5) Sacrificial Blood Sampling: At the 8th week, the rats fasted for 12-14 hours before blood sampling. […] Blood samples were centrifuged with the conditions of 4° C. and 3,000×g for 15 min.
as §4
The test was performed using a biochemical autoanalyzer (Model No.: Beckman-700, purchased from Fullerton, California, USA). The items measured were Total Cholesterol (TC), and Triglyceride (TG).

[5] = tested on: obesity rats induced by high-fat feed; experiment: Liver lipid extraction and determination (TC, TG)
Protocol: as §2, §3
(§5) 0.1 g of liver tissue or fecal powder was weighed and 1 mL of chloroform:methanol (2:1, v/v volume ratio) was added, and homogenized with a tissue homogenizer and centrifuged to obtain the supernatant. The supernatant was then air-dried to remove the solvent, and the sample was dissolved by adding dimethyl sulfoxide (DMSO), and the extracts were kept at −20° C. The TC concentration was analyzed using a commercially available biochemical reagent (Model No. BXC 0261, Fortress), and the TG concentration was analyzed using a commercially available biochemical reagent (Model No. BXC 0271, Fortress), as per the kit instruction manual.

[6] = tested on: obesity rats induced by high-fat feed; experiment: Fecal lipid extraction and determination (TC, TG)
Protocol: as §2, §3, §5

[7] = tested on: gut microbiota of high-fat diet rats; experiment: Gut microbiota fecal analysis (full-length 16S sequencing) of high-fat diet rats
Protocol: About 0.3 g of fresh feces was collected into 1.5 mL of eppendorf before fasting for sacrifice, sealed with parafilm, stored at −80° C. for analysis, and sent to BioTools (New Taipei, Taiwan) for analysis.
Total genomic DNA (QIAamp PowerFecal DNA, Qiagen) was extracted from the samples. The DNA concentration was determined by Qubit 4.0 fluorometer (Thermo Scientific) and adjusted to 1 ng/μL. The full-length 16S gene (V1-V9 region) was amplified by 16S gene-specific primers with barcodes (Forward primer 1): 5′ Phos/GCATC-16-base barcode-Sequence ID Number 11, Reverse primer 1: 5′Phos/GCATC-16-base barcode—Sequence ID Number 12). PCR reactions were performed using KAPA HiFi HotStart ReadyMix (Roche): at 95° C. for 3 min. and 20-27 cycles (Sample Dependency): at 95° C. for 30 sec., at 57° C. for 30 sec., at 72° C. for 60 sec; at 72° C. for 5 min., and finally stored at 4° C. for future use. PCR products were monitored on 1% agarose gels. Samples of approximately 1500 bp bright bands were selected and purified by using AMPure PB Beads for SMRTbell library preparation.
SMRTbell libraries were prepared based on full-length 16S gene amplifications with barcoded primers used in the Multiplex SMRTbell Library Preparation and Sequencing Program (Pacbio). Sequencing was performed in circular consensus sequencing (CCS) mode on a PacBio Sequel Ile instrument, generating HiFi read with a Phred Scale=30. The DNA to be tested will be sequenced iteratively. By comparing the results of the reverse sequencing, sequencing errors will be corrected, ultimately achieving a high accuracy of >99.9% (QV30).
Information Analysis (Sequential data processing/denoising and species annotation) The sample data from the downstream data were sorted out according to the Barcode sequence and PCR amplification primer sequences. After the removal of the barcodes and primer sequences, the data were imported into QIIME2 (v2019.7.0; https://qiime2.org/) and all the sequences of the samples were saved into one corresponding object Artifacts. QIIME2 cutadapt was used to remove the amplicon variant primers (forward primer 2: Sequence ID Number 13; reverse primer 2: Sequence ID Number 14), and the sequence with the primers removed will be used as QIIME2 DADA2. Input Reads.
The denoising analysis began with the filtering of sequences, setting each sequence to be cropped to a specified length (forward reads: 280 bp; reverse reads: 220 bp) and setting the MaxEE (forward reads: 2; reverse reads: 2) parameter as the maximum number of expected error bases allowed for the sequence. This was followed by denoising, the core algorithm of DADA2 utilizing the information of sequence abundance, quality score, and relationships between sequences to correct the […] of sequencing errors and to infer the real sequences. Splicing was performed after denoising each end of the sequence (minimum overlap length 20 bp; overlap region was not allowed to be mismatched). Finally, the spliced sequences are subjected to chimera removal by comparing the sequences with higher abundance in the sample. If a sequence with low abundance is similar to several sequences, it can be recognized as a chimera and removed from the sample. Sequences after denoising analysis were used as representative sequences of Amplicon Sequence Variants (ASVs) and can be obtained from the ASV table for subsequent species annotation. The QIIME2 feature-classifier (v2019.7.0; https://qiime2.org/) was used to select machine learning-based classification methods and to train naïve bayes classifiers for different databases and specific variability regions. The taxonomic annotation of ASVs represented by this classifier yields taxonomic information and the composition of the microbial phyla of each sample at each classification level including kingdom, phylum, class, order, family, genus, and species.
Welch's t-test was analyzed by STAMP (v2.1.3), and the intergroup species differences were plotted as bar charts. […]

[8] = Msol: Monascinol 0.31 mg/kg BW/day (adult 3 mg/day), tube-fed 8 weeks, high-fat diet SD rats, mean±SD
[9] = p<0.05, 8 weeks, RL 0.5 g/day, RH 2 g/day, Msol 3 mg/day (adult equivalent)
[10] = 8 weeks, RL 0.5 g/day, RH 2 g/day, Msol 3 mg/day (adult equivalent)
[11] = vs HF group, 8 weeks, RL 0.5 g/day, RH 2 g/day, Msol 3 mg/day (adult equivalent)
[12] = FIGS. 9A-9D, high-fat diet rats, red yeast rice 0.5 and 2 g/day, Monascinol 3 mg/day
[13] = order level, FIG. 7C, high-fat diet rats, red yeast rice 0.5 and 2 g/day, Monascinol 3 mg/day
[14] = phylum level, FIG. 7A, high-fat diet rats, red yeast rice 0.5 and 2 g/day, Monascinol 3 mg/day

`C/C=C/C1=CC2=C(CO1)C(=O)C1(C)OC(=O)C(C(O)CCCCC)C1C2` (stereo not drawn) [Msol, Monascinol] was tested, and the “Weight 8 week” value [1, 8] was 512.1 ± 31.1^a g, the Weight gain [1, 8] was 220.8 ± 38.8^a g and the “Weight before Sacrifice” value ([1]; after fasting, Msol: Monascinol 0.31 mg/kg BW/day (adult 3 mg/day), tube-fed 8 weeks, high-fat diet SD rats, mean±SD) was 488.5 ± 31.7^a g. For the same compound, the “weight gain compared with HF group” value [1, 9] was “significantly reduced”, the “liver-to-body-weight ratio compared with HF group” value [2, 10] was “reduction” and the “Liver Weight/Body Weight” value [2, 8] was 3.28 ± 0.37^b %. The Liver weight [2, 8] was 16.84 2.31^b g, the “liver weight compared with HF group” value [2, 9] was “significant decrease” and the Fat/body weight [3, 8] was 3.35 ± 0.55^b %. The “body fat mass compared with HF group” value [3, 9] was “significantly reduced”, the “body fat percentage compared with HF group” value [3, 9] was “significantly reduced” and the Fat weight ([3]; perirenal and epididymal fat, Msol: Monascinol 0.31 mg/kg BW/day (adult 3 mg/day), tube-fed 8 weeks, high-fat diet SD rats, mean±SD) was 17.95 3.55^b g. For the same compound, the TC in serum [4, 8] was 65.0 ± 10.4^b mg/dL, the TG in serum [4, 8] was 61.7 ± 10.7^a mg/dL and the “serum TC concentration compared with HF group” value [4, 9] was “reduced”. The “serum TG concentration compared with HF group” value ([4]; p<0.05, 8 weeks, red yeast rice at all doses (0.5 and 2 g/day), Msol 3 mg/day (adult equivalent)) was “significant reduction effect”, the “hepatic TC levels compared with HF group” value [5, 10] was “effective in reducing” and the “Liver TC” value [5, 8] was 5.05 ± 0.54^a mg/g. The “Liver TG” value [5, 8] was 14.40 ± 1.57^a mg/g, the “liver TG content compared with HF group” value [5, 9] was “significantly different from the HF group” and the “Feces TC” value [6, 8] was 46.22 ± 4.72^c mg/g. The “Feces TG” value [6, 8] was 61.27 4.80^cd mg/g, the “accumulation of TG in the body (from fecal TG content)” value [6, 11] was “effective in reducing” and the “excretion of TC (feces)” value [6, 11] was “significantly promoted”. For the same compound, the “F/B ratio (abundance ratio of Firmicutes to Bacteroidetes)” value ([7]; FIG. 7A, high-fat diet rats, red yeast rice 0.5 and 2 g/day, Monascinol 3 mg/day) was “decrease”, the “content of B. thetaiotaomicron in the intestines” value [7, 12] was “most significant” and the “intestinal abundance of Dubosiella newyorkensis” value [7, 12] was “increase”. For the same compound, the “bacterial abundance of Bifidobacteriales in the intestine” value [7, 13] was “increased”, the “intestinal abundance of Verrucomicrobiales” value [7, 13] was “increased” and the “intestinal abundance of Eubacteriales” value ([7]; order level, FIG. 8, HF group 50.14%, NOR 35.07%, MSol: Monascinol adult 3 mg/day, 8 weeks, high-fat diet rats) was 43.21%. The “abundance of Bacteroidetes” value [7, 14] was “increase”, the “abundance of Firmicutes” value [7, 14] was “decrease” and the “abundance of A. muciniphila” value ([7]; species level, FIG. 7F, high-fat diet-induced obesity rats, red yeast rice 0.5 and 2 g/day, Monascinol 3 mg/day) was “increased”.
